Data as given in US20250257062A1, “GLP-1R Agonist and Therapeutic Method Thereof” (Ascletis Pharma (China) Co., Limited, priority 2023, published 2025).

Tests used:
hGLP-1R = hGLP-1R (Homo sapiens (Human), UniProt P43220); assay: hGLP-1R cAMP assay (agonist cAMP stimulation, Flp-In-293-GLP1R cells); format: cell-based; conditions: 30 min at 37° C.
Procedure: hGLP-1R cAMP Assay • 1. Cell line and reagent preparation • 1) Cell line: Flp-In-293-GLP1R • 2) Medium: DMEM+10% FBS+1×Penicillin-Streptomycin+200 μg/mL HB • 3) Test buffer: 1×HBSS+20 mM HEPES+0.1% BSA+500 μM IBMX • 2. Agonist test • a) Flpin-293-GLP1R cells were incubated in a 384-well assay plate (6007680-50, PE) using complete medium with 2,000 cells per well. • b) Prepared a 4× […] working solution with assay buffer. • c) Added 5 μL of 4× Compound Working Solution to the cell plate and incubated at 37° C. for 30 minutes. • d) Diluted Eu-cAMP tracer (1/50) with lysis buffer and added 10 μl/well to the assay plate. • e) Diluted Ulight-anti-cAMP (1/150) with lysis buffer and added 10 μl/well to the assay plate. • f) Incubated at constant temperature for 1 hour. • g) Read the plate on Envision 2105 plate reader at […]. • 3. Data Analysis • 3.1 The formula for calculating % Activity was as follows
[formula] • 3.2 Calculate EC50 and plot the effect-dose curve for cmpds:
[formula] • X: logarithm of agonist concentration; Y: percentage activity.

[1] = Single-dose oral administration pharmacokinetic study in SD rats; format: in vivo; conditions: Sprague-Dawley, rat, 5 mg/kg, plasma; for Cmax: male SD rats; for AUC(0-t): male, po, exposure over 0-24 hours
Procedure: Single-dose oral administration pharmacokinetic (PK) studies in Sprague-Dawley (SD) rats Pharmacokinetic (PK) studies after a single-dose oral administration for compounds.
Protocol: Animals: Male Sprague-Dawley (SD) rats; Solvent: Solutol: PEG400: Tween80: Saline=10:40:2:48 (v/v/v/v); Dose: 5 mg/kg; Dosing concentration: 0.5 mg/mL in the solvent; Dosing volume: 10 mL/kg. Sample Collection: At each time point, approximately 0.15 mL of blood was drawn from the jugular vein sinus, and the collected whole blood was placed in an anticoagulant tube containing EDTA-K2. After collecting blood samples, they were processed with protein precipitation and then analyzed by LC-MS/MS.

Sequence of hGLP-1R (P43220 24-463): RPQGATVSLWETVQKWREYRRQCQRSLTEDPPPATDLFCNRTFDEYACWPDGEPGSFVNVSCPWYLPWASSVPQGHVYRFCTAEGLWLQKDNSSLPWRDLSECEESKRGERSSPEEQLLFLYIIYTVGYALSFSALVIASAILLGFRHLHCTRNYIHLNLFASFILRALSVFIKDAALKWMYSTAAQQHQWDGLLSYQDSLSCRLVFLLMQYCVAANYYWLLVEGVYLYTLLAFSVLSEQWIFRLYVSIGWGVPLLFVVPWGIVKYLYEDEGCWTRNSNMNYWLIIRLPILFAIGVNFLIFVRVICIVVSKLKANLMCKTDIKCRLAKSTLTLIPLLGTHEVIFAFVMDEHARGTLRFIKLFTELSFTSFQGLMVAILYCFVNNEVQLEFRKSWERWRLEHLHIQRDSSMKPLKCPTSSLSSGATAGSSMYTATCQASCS

SMILES: C[C@H]1c2c(nn(-c3ccc(F)c(C4CC4)c3)c2-n2ccn(-c3ccc4c(cnn4C4CC4)c3F)c2=O)CCN1C(=O)c1cc2cc(C3CCOCC3)ccc2n1[C@@]1(c2noc(=O)[nH]2)C[C@@H]1C [Compound 33]
- EC50 (hGLP-1R): 0.02 nM
- Cmax [1]: 5610 ng/mL
- AUC(0-t) [1]: 71200 ng·h/mL

SMILES: C[C@H]1c2c(nn(-c3ccc(F)c4c3CCC4)c2-n2ccn(-c3ccc4c(cnn4C4CC4)c3F)c2=O)CCN1C(=O)c1cc2cc(C3CCOCC3)ccc2n1[C@@]1(c2noc(=O)[nH]2)C[C@@H]1C [Compound 45]
- EC50 (hGLP-1R): 0.015 nM
- Cmax [1]: 3210 ng/mL
- AUC(0-t) [1]: 29600 ng·h/mL

SMILES: C[C@H]1c2c(nn(-c3ccc(F)c(C4CC4)c3)c2-n2ccn(-c3ccc(CP(C)(C)=O)cc3)c2=O)CCN1C(=O)c1cc2cc(C3CCOCC3)ccc2n1[C@@]1(c2noc(=O)[nH]2)C[C@@H]1C [Compound 51]
- EC50 (hGLP-1R): 0.028 nM
